Test results: patent US7399319B2, “Dyeing composition comprising a dye chosen from styryl and imine dyes and methods for dyeing keratin fibers” (L'Oreal S.A., priority 2005, dated 2008)

Test: Shampoo-fastness test on dyed locks
Method: A shampoo-fastness test was performed on the locks of hair dyed with dyes 1 and 2 obtained under the conditions described above. The dyed locks were subjected to 20 shampoo washes according to a cycle comprising wetting the locks with water, washing with shampoo, rinsing with water, and then drying.
The degradation of the color after x shampoo washes was estimated according to the following formula:
[formula] [formula] [formula] [formula] [formula] wherein a*ctrl, b*ctrl, and L*ctrl are the values of a*, b*, and L* of the non-dyed lock; a*dyed, b*dyed, and L*dyed are the values of a*, b*, and L* of the dyed lock before shampooing, whereas a*xSh, b*xSh, and L*xSh are the values of a*, b*, and L* of the dyed lock after x shampoo washes.

[1] = permanent-waved lock, after 5 shampoo washes
[2] = permanent-waved lock, after 12 shampoo washes
[3] = permanent-waved lock, after 18 shampoo washes
[4] = permanent-waved lock, after 20 shampoo washes

| % degradation (natural lock, after 5 shampoo washes) | % degradation (natural lock, after 12 shampoo washes) | % degradation (natural lock, after 18 shampoo washes) | % degradation (natural lock, after 20 shampoo washes) | % degradation [1] | % degradation [2] | % degradation [3] | % degradation [4] | Compound |
| --- | --- | --- | --- | --- | --- | --- | --- | --- |
| 4% | 14% | 18% | 20% | 6% | 6% | 7% | 11% | CN(C)c1ccc(C=CC=CC23OCCN2c2ccccc2C3(C)C)cc1 (stereo not drawn) [Dye 2] |
| – | – | – | – | 10% | 17% | 18% | 24% | CN(C)c1ccc(C=CC23OCCN2c2ccccc2C3(C)C)cc1 (stereo not drawn) [Dye 1] |
